This passage reports IC50 results from patent publication US10919885B2, “Compounds and uses thereof” (Yumanity Therapeutics, Inc., priority 2018, dated 2021).

pIC50: −log10 of the molar value.

One experiment has as its target human SCD1 (Homo sapiens (Human), UniProt O00767). As to the kind of experiment: Yeast growth assay, strain expressing human SCD1 as the sole desaturase (reduced growth as surrogate for SCD inhibition). Format: cell-based. The following applies: yeast with OLE1 deleted expressing human SCD1 from a plasmid; growth read as OD600 after 40 h at 30° C.; top drug concentration 33.3 μM. The method in brief: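 Human SCD1 or SCD5 expressed from a plasmid in OLE1-deleted yeast as the sole desaturase. Cells washed free of Tween and fatty acids, grown with compound in SD-Ura glucose medium 40 h at 30 °C; growth measured as OD600, reduced growth taken as SCD inhibition.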

Another experiment addresses human SCD5 (Homo sapiens (Human), UniProt Q86SK9). As to the kind of experiment: Yeast growth assay, strain expressing human SCD5 as the sole desaturase (reduced growth as surrogate for SCD inhibition). In kind it is cell-based. The following applies: yeast with OLE1 deleted expressing human SCD5 from a plasmid; growth read as OD600 after 40 h at 30° C.; top drug concentration 33.3 μM. The method, then:
Strains expressing SCD1 or SCD5 as the sole desaturase, the human SCD1 and SCD5 genes were used to evaluate inhibition of SCD1/SCD5 using reduced growth as a surrogate for SCD inhibition. These yeast strains express human SCD1 or SCD5 from a plasmid harbored in a strain in which the yeast OLE1 gene is deleted.
All compound profiling experiments were performed using the same basic protocol. Yeast were cultured using standard techniques in complete synthetic media lacking uracil and containing yeast nitrogen base supplemented with 2% (w/v) glucose (SD-Ura) Starter cultures were inoculated in 3 mL SD-Ura media containing 0.01% tween and 0.2 mM palmitoleic and oleic acid. Cultures were incubated overnight in a 30° C. shaker incubator (225 rpm). Saturated morning cultures were centrifuged, washed in SD-Ura media lacking TWEEN-20 and fatty acids, and then diluted 1:20 in fresh SD-Ura media also lacking TWEEN-20 and fatty acids.
Compound administration was performed in two separate steps. First, 15 μL of SD-Ura was dispensed into clear 384-well assay plates using a MULTIDROP™ Combi reagent dispenser. […] The cultures described above were centrifuged and washed with media lacking TWEEN-20 or oleic and palmitoleic acids.
After yeast delivery, assay plates were incubated under humidified conditions at 30° C. for 40 h. Yeast growth was monitored by reading the OD600 of each well using a microplate reader (Perkin Elmer EnVision™).

human SCD5, sequence (Q86SK9 whole entry): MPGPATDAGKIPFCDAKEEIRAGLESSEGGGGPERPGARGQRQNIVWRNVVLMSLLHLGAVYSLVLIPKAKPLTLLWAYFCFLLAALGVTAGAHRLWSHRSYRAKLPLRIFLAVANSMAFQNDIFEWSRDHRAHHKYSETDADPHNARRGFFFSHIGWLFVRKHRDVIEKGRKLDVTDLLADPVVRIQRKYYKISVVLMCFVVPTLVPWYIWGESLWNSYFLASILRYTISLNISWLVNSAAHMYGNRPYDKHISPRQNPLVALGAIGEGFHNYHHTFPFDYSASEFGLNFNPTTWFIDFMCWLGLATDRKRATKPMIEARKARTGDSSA
human SCD1, sequence (O00767 whole entry): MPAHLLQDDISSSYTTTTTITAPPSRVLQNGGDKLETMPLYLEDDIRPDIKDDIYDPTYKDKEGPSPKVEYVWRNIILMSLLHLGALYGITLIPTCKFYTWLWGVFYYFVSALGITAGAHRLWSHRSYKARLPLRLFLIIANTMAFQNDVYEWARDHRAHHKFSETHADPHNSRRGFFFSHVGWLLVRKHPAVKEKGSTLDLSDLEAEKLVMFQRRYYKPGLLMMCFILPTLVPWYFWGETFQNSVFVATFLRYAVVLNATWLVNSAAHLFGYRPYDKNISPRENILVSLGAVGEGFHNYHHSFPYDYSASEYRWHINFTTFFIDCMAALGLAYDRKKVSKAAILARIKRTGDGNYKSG

A word on the pIC50: it is the negative decadic logarithm of the IC50, by convention in mol/L. A lower pIC50 goes with a high IC50. Turning to `O=C(c1cc(-c2ccncc2)on1)N1CC(c2ccccc2)C1` [Compound 229, (3-phenylazetidin-1-yl)(5-(pyridin-4-yl)isoxazol-3-yl)methanone, trifluoroacetic acid], the pIC50 on human SCD1 was 6.18; at human SCD5, 5.14.
The like results for `C=C(C)c1cc(C(=O)Nc2cnn(Cc3cc(F)ccc3C(F)(F)F)c2)no1` [Compound 84] were, in that order, under 4.35 and under 4.35.
On to `CC(c1ccccc1)n1cc(NC(=O)c2cc(-c3ccccc3)on2)cn1` (stereo not drawn) [Compound 51], for which the pIC50 against human SCD1 and at human SCD5 was under 4.35 in each case.
`CNC(=O)c1cc(C(=O)Nc2cnn(Cc3cccc(F)c3)c2)no1` [Compound 87]: the figures for the pIC50 on human SCD1 and against human SCD5 were 4.82 and under 4.35, respectively.
The like results for `CN1CCN(c2cc(C(=O)Nc3cnn(Cc4ccccc4)c3)no2)CC1` [Compound 183] were, in that order, under 4.35 and under 4.35.
The like results for `O=C(c1cc(-c2ccccn2)on1)N1CCC(c2cccc(F)c2)C1` (stereo not drawn) [Compound 352] were, in that order, under 4.35 and 5.05.
The like results for `Cc1nn(Cc2ccc(Cl)c(Cl)c2)c(C)c1NC(=O)c1cc(-c2ccco2)on1` [Compound 3, N-(1-(3,4-dichlorobenzyl)-3,5-dimethyl-1H-pyrazol-4-yl)-5-(furan-2-yl)isoxazole-3-carboxamide] were, in that order, under 4.35 and 5.15.
As to `O=C(c1cc(-c2ccccc2)on1)N1CCN(c2ccc(F)cc2)CC1` [Compound 283], the negative logarithm of the IC50 (pIC50) against human SCD1 and on human SCD5 was under 4.35 each time.
Take `O=C(c1cc(-c2ccco2)on1)N(Cc1ccc(Cl)cc1)c1cnn(Cc2ccc(Cl)cc2)c1` [Compound 32]: the pIC50 against human SCD1 and on human SCD5 was under 4.35 each time.
Turning to `O=C(c1cc(-c2ccc3c(c2)OCO3)on1)N1CCCC1c1cccnc1` (stereo not drawn) [Compound 362], the pIC50 on human SCD1 and on human SCD5 was under 4.35 each time.
With `O=C(Nc1cnn(Cc2ccc(Cl)cc2)c1)c1cc(-c2ccco2)on1` [Compound 15], the pIC50 against human SCD1 and on human SCD5 was under 4.35 throughout.
For the compound `CNC(=O)c1ccccc1-c1cc(C(=O)N2CCC(c3ccccc3)CC2)no1` [Compound 301, N-methyl-2-[3-(4-phenylpiperidine-1-carbonyl)isoxazol-5-yl]benzamide], the pIC50 at human SCD1 was under 4.35; against human SCD5 it was 5.18.
The like results for `CS(=O)(=O)CC(c1ccccc1)n1cc(NC(=O)c2cc(-c3ccccc3)on2)cn1` (stereo not drawn) [Compound 80] were, in that order, under 4.35 and under 4.35.
As for `O=C(c1cc(-c2ccc3c(c2)OCO3)on1)N1CCCC1c1cccnn1` (stereo not drawn) [Compound 391], the negative logarithm of the IC50 (pIC50) against human SCD1 and against human SCD5 was under 4.35 in each case.
For `Cc1ncc(-c2cc(C(=O)Nc3cnn(Cc4ccccc4)c3)no2)s1` [Compound 133], the negative-log IC50 (pIC50) against human SCD1 and at human SCD5 was under 4.35 each time.
For the compound `COc1ccccc1-c1cc(C(=O)N2CCC(c3ccccc3)CC2)no1` [Compound 320], the pIC50 against human SCD1 and at human SCD5 was under 4.35 each time.
On to `O=C(Nc1cnn(Cc2cccc(F)c2)c1)c1cc(-c2ccon2)on1` [Compound 72], for which the pIC50 against human SCD1 was 7.08; at human SCD5 it was under 4.35.
Take `O=C(c1cc(-c2ccc(=O)[nH]c2)on1)N1CCC[C@H]1c1ccccc1` [Compound 451]: the negative logarithm of the IC50 (pIC50) against human SCD1 was 4.43; against human SCD5, under 4.35.
For `O=C(Nc1cnn(Cc2ccccc2)c1)c1cc(-c2cncs2)no1` [Compound 131], in that order: under 4.35 and under 4.35.
Turning to `O=C(c1cc(-c2ccco2)on1)N1CC(Cc2ccccc2)C1` [Compound 205, (3-benzylazetidin-1-yl)-[5-(2-furyl)isoxazol-3-yl]methanone], the negative logarithm of the IC50 (pIC50) against human SCD1 was 6.64; on human SCD5, 6.20.
For `N#Cc1ccc(Cn2cc(NC(=O)c3cc(-c4ccccc4)on3)cn2)s1` [Compound 43], in that order: under 4.35 and under 4.35.
For `O=C(c1cc(-c2ccccc2)on1)N1CCC(c2ccccc2F)C1` (stereo not drawn) [Compound 335], in that order: under 4.35 and under 4.35.
For `COc1ccc(C2CCCN2C(=O)c2cc(-c3ccc(OC)c(OC)c3)on2)cc1` (stereo not drawn) [Compound 374], the negative logarithm of the IC50 (pIC50) against human SCD1 is 4.49; against human SCD5 it was under 4.35.
The like results for `N#Cc1cccnc1C1CCCN1C(=O)c1cc(-c2ccc3c(c2)OCO3)on1` (stereo not drawn) [Compound 448] were, in that order, under 4.35 and under 4.35.
As for `N#Cc1ccc(Cn2cc(NC(=O)c3cc(-c4ccccc4)on3)cn2)cc1` [Compound 42], the pIC50 against human SCD1 and at human SCD5 was under 4.35 throughout.
Turning to `O=C(c1cc(-c2ccc3c(c2)OCO3)on1)N1CCCC1c1ccccc1C(F)F` (stereo not drawn) [Compound 331], the pIC50 was under 4.35 against human SCD1 and 5.21 against human SCD5.
The like results for `O=C(c1cc(-c2ccc3c(c2)OCO3)on1)N1CCCC1c1ccc(F)cn1` (stereo not drawn) [Compound 272] were, in that order, under 4.35 and under 4.35.
The like results for `O=C(c1cc(-c2ccc3c(c2)OCO3)on1)N1CCN(c2cc(F)ccc2Cl)CC1` [Compound 299, [5-(1,3-benzodioxol-5-yl)isoxazol-3-yl]-[4-(2-chloro-5-fluoro-phenyl)piperazin-1-yl]methanone] were, in that order, under 4.35 and 5.06.
For `CCOC(=O)c1cc(C(=O)Nc2cnn(Cc3ccccc3)c2)on1` [Compound 151], in that order: under 4.35 and under 4.35.
Consider `O=C(c1cc(-c2ccc3c(c2)OCO3)on1)N1CC(Cc2ccccc2)C1` [Compound 216, [5-(1,3-benzodioxol-5-yl)isoxazol-3-yl]-(3-benzylazetidin-1-yl)methanone], for which the pIC50 against human SCD1 is under 4.35; on human SCD5, 5.95.
For `N#Cc1ccc(F)cc1Cn1cc(NC(=O)c2cc(-c3ccccc3)on2)cn1` [Compound 88], in that order: under 4.35 and under 4.35.
The like results for `O=C(c1cc(-c2ccc3c(c2)OCO3)on1)N1CCC(c2ccccc2)C1` (stereo not drawn) [Compound 329] were, in that order, under 4.35 and under 4.35.
Consider `O=C(c1cc(-c2ccc3c(c2)OCO3)on1)N1CC2(C1)CN(c1ccccc1)C2` [Compound 222], for which the pIC50 on human SCD1 and against human SCD5 was under 4.35 in each case.
On to `O=C(Nc1cnn(Cc2ccccc2)c1)c1cc(-c2ccccc2Cl)on1` [Compound 141], for which the negative-log IC50 (pIC50) on human SCD1 and against human SCD5 was under 4.35 in each case.
For `O=C(Nc1cnn(Cc2cccc(F)c2)c1)c1cc(-c2ccno2)on1` [Compound 168], the pIC50 on human SCD1 and on human SCD5 was under 4.35 throughout.
Turning to `O=C(c1cc(-c2ccco2)on1)N1CC2(COC2)C1` [Compound 247], the negative-log IC50 (pIC50) against human SCD1 and on human SCD5 was under 4.35 throughout.
Turning to `O=C(c1cc(-c2ccco2)on1)N1CC(F)C1` [Compound 244], the negative-log IC50 (pIC50) on human SCD1 and at human SCD5 was under 4.35 throughout.
For the compound `Cn1ncc2cccc(C3CCCN3C(=O)c3cc(-c4ccc5c(c4)OCO5)on3)c21` (stereo not drawn) [Compound 425], the pIC50 on human SCD1 and against human SCD5 was under 4.35 in each case.
For `Cc1cnoc1C1CCCN1C(=O)c1cc(-c2ccc3c(c2)OCO3)on1` (stereo not drawn) [Compound 439], the pIC50 on human SCD1 and against human SCD5 was under 4.35 in each case.
As to `O=C(Nc1cnn(Cc2ccccc2)c1)c1cc(-c2ccccc2)no1` [Compound 123], the pIC50 against human SCD1 and at human SCD5 was under 4.35 each time.
Consider `N#Cc1ccc2c(C(=O)N3CCC[C@H]3c3ccccc3)noc2c1` [Compound 456], for which the pIC50 on human SCD1 and on human SCD5 was under 4.35 in each case.
On to `O=C(c1cc(-c2ccco2)on1)N1CC(c2ccccc2)C1` [Compound 207, [5-(2-furyl)isoxazol-3-yl]-(3-phenylazetidin-1-yl)methanone], for which the negative-log IC50 (pIC50) is 5.59 at human SCD1 and 5.94 against human SCD5.
For `N#Cc1cc(C(=O)Nc2cnn(Cc3cccc(F)c3)c2)no1` [Compound 169], in that order: under 4.35 and under 4.35.
Take `N#Cc1ccccc1C1CCCN1C(=O)c1cc(-c2ccc3c(c2)OCO3)on1` (stereo not drawn) [Compound 398]: the pIC50 on human SCD1 and on human SCD5 was under 4.35 each time.
For the compound `CC(C)(C)OC(=O)N1CC2(C1)CN(C(=O)c1cc(-c3ccccc3)on1)C2` [Compound 344], the pIC50 at human SCD1 and at human SCD5 was under 4.35 throughout.
For `O=C(c1noc2cc(Br)ccc12)N1CCC[C@H]1c1ccccc1` [Compound 449], the pIC50 is under 4.35 against human SCD1 and 4.38 against human SCD5.
The like results for `O=C(c1cc(-c2ccc3c(c2)OCO3)on1)N1CCC1c1ccccc1Cl` (stereo not drawn) [Compound 219] were, in that order, under 4.35 and under 4.35.
The like results for `O=C(Nc1cnn(Cc2ccccc2)c1)c1cc(C2CC2)on1` [Compound 119, N-(1-benzyl-1H-pyrazol-4-yl)-5-cyclopropylisoxazole-3-carboxamide] were, in that order, 6.96 and 5.70.
